Experimental data as given in ChEMBL document CHEMBL4177696, “Identification of a diverse synthetic abietane diterpenoid library and insight into the structure-activity relationships for antibacterial activity” (Bioorg Med Chem Lett, 2017).
Values after ≈ are worked out from the molar mass of the structure shown.

What was measured:
Format in all cases: functional
Staphylococcus aureus = experiment: Antibacterial activity against Staphylococcus aureus measured after 24 hrs
Bacillus subtilis = experiment: Antibacterial activity against Bacillus subtilis measured after 24 hrs
Escherichia coli = experiment: Antibacterial activity against Escherichia coli measured after 24 hrs
Pseudomonas fluorescens = experiment: Antibacterial activity against Pseudomonas fluorescens measured after 24 hrs

Compound	MIC (Staphylococcus aureus)	MIC (Bacillus subtilis)	MIC (Escherichia coli)	MIC (Pseudomonas fluorescens)
C=C1[C@@H]2CCc3c(ccc(C(C)C)c3OC)[C@@]2(C)CC[C@@]1(O)CO	50 µg/mL (≈ 151 µM)	25 µg/mL (≈ 75.7 µM)	50 µg/mL (≈ 151 µM)	25 µg/mL (≈ 75.7 µM)
COC(=O)[C@]1(C)CCC[C@]2(C)c3ccc(C(C)C)c(NC(=O)Cn4cc(-c5ccc(OCc6ccccc6)cc5)nn4)c3CC[C@@H]12	50 µg/mL (≈ 80.5 µM)	50 µg/mL (≈ 80.5 µM)	75 µg/mL (≈ 121 µM)	75 µg/mL (≈ 121 µM)
COC(=O)[C@]1(C)CCC[C@]2(C)c3ccc(C(C)C)c(NC(=O)Cn4cc(-c5ccccc5OC)nn4)c3CC[C@@H]12	75 µg/mL (≈ 138 µM)	50 µg/mL (≈ 91.8 µM)	75 µg/mL (≈ 138 µM)	25 µg/mL (≈ 45.9 µM)
C=C1CCC[C@]2(C)c3ccc(C(C)C)c(OC)c3CC[C@@H]12	100 µg/mL (≈ 352 µM)	75 µg/mL (≈ 264 µM)	100 µg/mL (≈ 352 µM)	100 µg/mL (≈ 352 µM)
NCC[C@H](O)C(=O)N[C@@H]1C[C@H](N)[C@@H](O[C@H]2O[C@H](CN)[C@@H](O)[C@H](O)[C@H]2O)[C@H](O)[C@H]1O[C@H]1O[C@H](CO)[C@@H](O)[C@H](N)[C@H]1O.O=S(=O)(O)O.O=S(=O)(O)O [AMIKACIN SULFATE]	0.8 µg/mL	0.8 µg/mL	1.6 µg/mL	0.8 µg/mL
COC(=O)[C@]1(C)CCC[C@]2(C)c3ccc(C(C)C)c(OC)c3CC[C@@H]12	75 µg/mL (≈ 218 µM)	75 µg/mL (≈ 218 µM)	100 µg/mL (≈ 290 µM)	75 µg/mL (≈ 218 µM)
COc1c(C(C)C)ccc2c1CC[C@H]1[C@@H]3COC(=O)[C@]3(O)CC[C@]21C	100 µg/mL (≈ 290 µM)	100 µg/mL (≈ 290 µM)	50 µg/mL (≈ 145 µM)	100 µg/mL (≈ 290 µM)
COC(=O)[C@]1(C)CCC[C@]2(C)c3ccc(C(C)C)c(NC(=O)Cn4cc(C5CC5)nn4)c3CC[C@@H]12	50 µg/mL (≈ 104 µM)	75 µg/mL (≈ 157 µM)	6.3 µg/mL (≈ 13.2 µM)	75 µg/mL (≈ 157 µM)
COC(=O)[C@]1(C)CCC[C@]2(C)c3ccc(C(C)C)c(NC(=O)Cn4cc(-c5ccc(Br)cc5)nn4)c3CC[C@@H]12	25 µg/mL (≈ 42.1 µM)	12.5 µg/mL (≈ 21.1 µM)	25 µg/mL (≈ 42.1 µM)	6.3 µg/mL (≈ 10.6 µM)
COC(=O)[C@]1(C)CCC[C@]2(C)c3ccc(C(C)C)c(NC(=O)Cn4cc(-c5cccc(Cl)c5)nn4)c3CC[C@@H]12	50 µg/mL (≈ 91.1 µM)	12.5 µg/mL (≈ 22.8 µM)	12.5 µg/mL (≈ 22.8 µM)	25 µg/mL (≈ 45.5 µM)
COC(=O)[C@]1(C)CCC[C@]2(C)c3ccc(C(C)C)c(NC(=O)Cn4cc(-c5ccc(-c6ccccc6)cc5)nn4)c3CC[C@@H]12	50 µg/mL (≈ 84.6 µM)	75 µg/mL (≈ 127 µM)	25 µg/mL (≈ 42.3 µM)	50 µg/mL (≈ 84.6 µM)
COC(=O)[C@]1(C)CCC[C@]2(C)c3ccc(C(C)C)c(NC(=O)Cn4cc([Si](C)(C)C)nn4)c3CC[C@@H]12	75 µg/mL (≈ 147 µM)	100 µg/mL (≈ 196 µM)	75 µg/mL (≈ 147 µM)	100 µg/mL (≈ 196 µM)
COC(=O)[C@]1(C)CCC[C@@]2(C)[C@H]1CC=C1[C@@H]2CC[C@](O)(C(C)C)[C@H]1O	75 µg/mL (≈ 214 µM)	75 µg/mL (≈ 214 µM)	100 µg/mL (≈ 285 µM)	75 µg/mL (≈ 214 µM)
COC(=O)[C@]1(C)CCC[C@]2(C)c3ccc(C(C)C)c(NC(=O)Cn4cc(-c5nc(Cl)nc(Cl)n5)nn4)c3CC[C@@H]12	12.5 µg/mL (≈ 21.3 µM)	25 µg/mL (≈ 42.6 µM)	6.3 µg/mL (≈ 10.7 µM)	12.5 µg/mL (≈ 21.3 µM)
COC(=O)[C@]1(C)CCC[C@]2(C)c3ccc(C(C)C)c(NC(=O)Cn4cc(-c5ccc(OC(F)(F)F)cc5)nn4)c3CC[C@@H]12	25 µg/mL (≈ 41.8 µM)	50 µg/mL (≈ 83.5 µM)	50 µg/mL (≈ 83.5 µM)	75 µg/mL (≈ 125 µM)
COC(=O)[C@]1(C)CCC[C@]2(C)c3ccc(C(C)C)c(NC(=O)Cn4cc(CCO)nn4)c3CC[C@@H]12	25 µg/mL (≈ 51.8 µM)	50 µg/mL (≈ 104 µM)	25 µg/mL (≈ 51.8 µM)	75 µg/mL (≈ 155 µM)
COC(=O)[C@]1(C)CCC[C@]2(C)c3ccc(C(C)C)c(NC(=O)Cn4cc(-c5cccc(Br)c5)nn4)c3CC[C@@H]12	25 µg/mL (≈ 42.1 µM)	25 µg/mL (≈ 42.1 µM)	12.5 µg/mL (≈ 21.1 µM)	12.5 µg/mL (≈ 21.1 µM)
COC(=O)[C@]1(C)CCC[C@]2(C)c3ccc(C(C)C)c(NC(=O)Cn4cc(-c5ccccc5)nn4)c3CC[C@@H]12	50 µg/mL (≈ 97.1 µM)	25 µg/mL (≈ 48.6 µM)	25 µg/mL (≈ 48.6 µM)	50 µg/mL (≈ 97.1 µM)
C=C1C(=O)CC[C@]2(C)c3ccc(C(C)C)c(OC)c3CC[C@@H]12	25 µg/mL (≈ 83.8 µM)	12.5 µg/mL (≈ 41.9 µM)	6.3 µg/mL (≈ 21.1 µM)	25 µg/mL (≈ 83.8 µM)

Compound	MIC (Staphylococcus aureus)	MIC (Bacillus subtilis)	MIC (Escherichia coli)	MIC (Pseudomonas fluorescens)
COC(=O)[C@]1(C)CCC[C@]2(C)c3ccc(C(C)C)c(NC(=O)Cn4cc(-c5cc(OC)cc(OC)c5)nn4)c3CC[C@@H]12	25 µg/mL (≈ 43.5 µM)	100 µg/mL (≈ 174 µM)	75 µg/mL (≈ 130 µM)	75 µg/mL (≈ 130 µM)
C=C1C(CO)=CC[C@]2(C)c3ccc(C(C)C)c(OC)c3CC[C@@H]12	75 µg/mL (≈ 240 µM)	100 µg/mL (≈ 320 µM)	100 µg/mL (≈ 320 µM)	75 µg/mL (≈ 240 µM)
COc1c(C(C)C)ccc2c1CC[C@H]1[C@@H](O)CCC[C@]21C	100 µg/mL (≈ 347 µM)	100 µg/mL (≈ 347 µM)	75 µg/mL (≈ 260 µM)	100 µg/mL (≈ 347 µM)
COc1ccc(COC[C@H]2[C@H](O)CC[C@]3(C)c4cccc(OC)c4CC[C@@H]23)cc1	25 µg/mL (≈ 63 µM)	50 µg/mL (≈ 126 µM)	25 µg/mL (≈ 63 µM)	25 µg/mL (≈ 63 µM)
COC(=O)[C@]1(C)CCC[C@]2(C)c3ccc(C(C)C)c(NC(=O)Cn4cc(-c5ccncc5)nn4)c3CC[C@@H]12	0.8 µg/mL (≈ 1.55 µM)	6.3 µg/mL (≈ 12.2 µM)	25 µg/mL (≈ 48.5 µM)	3.1 µg/mL (≈ 6.01 µM)
COC(=O)[C@]1(C)CCC[C@]2(C)c3ccc(C(C)C)c(NC(=O)Cn4cc(-c5ccc6ccccc6c5)nn4)c3CC[C@@H]12	75 µg/mL (≈ 133 µM)	50 µg/mL (≈ 88.5 µM)	25 µg/mL (≈ 44.3 µM)	25 µg/mL (≈ 44.3 µM)
CC(C)c1ccc2c(c1O)CC[C@H]1C3=C(CC[C@]21C)C(=O)OC3 [TRIPTOPHENOLIDE]	75 µg/mL (≈ 240 µM)	50 µg/mL (≈ 160 µM)	100 µg/mL (≈ 320 µM)	75 µg/mL (≈ 240 µM)
COC(=O)[C@]1(C)CCC[C@]2(C)c3ccc(C(C)C)c(O)c3CC[C@@H]12	50 µg/mL (≈ 151 µM)	75 µg/mL (≈ 227 µM)	50 µg/mL (≈ 151 µM)	25 µg/mL (≈ 75.7 µM)
COc1cccc2c1CC[C@H]1[C@@H](CO)[C@H](O[Si](C)(C)C(C)(C)C)CC[C@]21C	100 µg/mL (≈ 256 µM)	100 µg/mL (≈ 256 µM)	100 µg/mL (≈ 256 µM)	75 µg/mL (≈ 192 µM)
COC(=O)[C@]1(C)CCC[C@@]2(C)[C@H]1CC=C1C(=O)[C@@](O)(C(C)C)CC[C@@H]12	75 µg/mL (≈ 215 µM)	100 µg/mL (≈ 287 µM)	75 µg/mL (≈ 215 µM)	100 µg/mL (≈ 287 µM)
COc1c(C(C)C)ccc2c1CC[C@H]1[C@@H](O)CCC[C@]21CO[N+](=O)[O-]	100 µg/mL (≈ 286 µM)	75 µg/mL (≈ 215 µM)	100 µg/mL (≈ 286 µM)	25 µg/mL (≈ 71.5 µM)
COC(=O)[C@]1(C)CCC[C@@]2(C)[C@H]1CC=C1C=C(C(C)C)CC[C@@H]12 [METHYL ABIETATE]	50 µg/mL (≈ 158 µM)	75 µg/mL (≈ 237 µM)	75 µg/mL (≈ 237 µM)	50 µg/mL (≈ 158 µM)
COC(=O)[C@]1(C)CCC[C@]2(C)c3ccc(C(C)C)c(NC(=O)Cn4cc(-c5ccc(OC)cc5)nn4)c3CC[C@@H]12	6.3 µg/mL (≈ 11.6 µM)	50 µg/mL (≈ 91.8 µM)	12.5 µg/mL (≈ 22.9 µM)	25 µg/mL (≈ 45.9 µM)
CC(C)c1ccc2c(c1)CC[C@H]1[C@](C)(C(=O)O)CCC[C@]21C [DEHYDROABIETIC ACID]	25 µg/mL (≈ 83.2 µM)	50 µg/mL (≈ 166 µM)	75 µg/mL (≈ 250 µM)	50 µg/mL (≈ 166 µM)
COC(=O)c1cn(CC(=O)Nc2c(C(C)C)ccc3c2CC[C@H]2[C@](C)(C(=O)OC)CCC[C@]32C)nn1	75 µg/mL (≈ 151 µM)	50 µg/mL (≈ 101 µM)	75 µg/mL (≈ 151 µM)	50 µg/mL (≈ 101 µM)
COc1c(C(C)C)ccc2c1CC[C@H]1[C@@H](CO)[C@H](O)CC[C@]21C	75 µg/mL (≈ 236 µM)	100 µg/mL (≈ 314 µM)	75 µg/mL (≈ 236 µM)	50 µg/mL (≈ 157 µM)
COC(=O)[C@]1(C)CCC[C@]2(C)c3ccc(C(C)C)c(NC(=O)Cn4cc(-c5cccs5)nn4)c3CC[C@@H]12	12.5 µg/mL (≈ 24 µM)	6.3 µg/mL (≈ 12.1 µM)	50 µg/mL (≈ 96 µM)	6.3 µg/mL (≈ 12.1 µM)
COC(=O)[C@]1(C)CCC[C@]2(C)c3ccc(C(C)C)c(OC)c3C(=O)C[C@@H]12	50 µg/mL (≈ 139 µM)	50 µg/mL (≈ 139 µM)	25 µg/mL (≈ 69.7 µM)	50 µg/mL (≈ 139 µM)
COc1c(C(C)C)ccc2c1CC[C@H]1c3cocc3CC[C@]21C	50 µg/mL (≈ 161 µM)	100 µg/mL (≈ 322 µM)	100 µg/mL (≈ 322 µM)	100 µg/mL (≈ 322 µM)
